Measured values taken from US8492401B2, “Thiazolopyridine sirtuin modulating compounds” (Sirtris Pharmaceuticals, priority 2008, dated 2013).

Target: T1, SIRT1 (Homo sapiens, UniProt Q96EB6)
T1 sequence (Q96EB6 1-747): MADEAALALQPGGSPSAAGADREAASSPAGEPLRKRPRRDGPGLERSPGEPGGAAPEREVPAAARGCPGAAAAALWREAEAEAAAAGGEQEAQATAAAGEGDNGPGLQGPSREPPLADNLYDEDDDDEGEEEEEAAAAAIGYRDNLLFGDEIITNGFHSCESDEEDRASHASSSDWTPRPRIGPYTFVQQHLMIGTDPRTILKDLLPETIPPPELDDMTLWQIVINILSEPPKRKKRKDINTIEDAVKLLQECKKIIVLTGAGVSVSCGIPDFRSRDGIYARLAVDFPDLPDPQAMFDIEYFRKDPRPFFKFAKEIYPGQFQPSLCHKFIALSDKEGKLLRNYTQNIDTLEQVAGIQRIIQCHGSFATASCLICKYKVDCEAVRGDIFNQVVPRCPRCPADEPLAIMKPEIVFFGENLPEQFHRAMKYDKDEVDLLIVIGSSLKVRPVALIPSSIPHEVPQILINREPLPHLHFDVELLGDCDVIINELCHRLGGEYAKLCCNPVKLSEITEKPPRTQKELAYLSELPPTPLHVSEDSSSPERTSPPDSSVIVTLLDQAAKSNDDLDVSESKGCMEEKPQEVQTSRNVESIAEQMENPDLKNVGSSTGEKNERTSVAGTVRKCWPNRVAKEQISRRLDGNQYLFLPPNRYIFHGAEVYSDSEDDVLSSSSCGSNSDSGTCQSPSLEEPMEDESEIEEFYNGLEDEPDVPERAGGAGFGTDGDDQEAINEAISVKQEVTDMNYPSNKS
Assay: Mass spectrometry based assay to identify modulators (activators) of SIRT1 activity
Format: biochemical
Settings: 0.5 μM peptide substrate, 120 μM βNAD+, 10 nM SIRT1, 25 minutes at 25° C.; for EC1.5: SIRT1 activation
Excerpt: A mass spectrometry based assay was used to identify modulators of SIRT1 activity. The mass spectrometry based assay utilizes a peptide having 20 amino acid residues as follows: Ac-EE-K(biotin)-GQSTSSHSK(Ac)NleSTEG-K(5TMR)-EE-NH2 (SEQ ID NO: 1) wherein K(Ac) is an acetylated lysine residue and Nle is a norleucine. The peptide is labeled with the fluorophore 5TMR (excitation 540 nm/emission 580 nm) at the C-terminus. The sequence of the peptide substrate is based on p53 with several modifications. In addition, the methionine residue naturally present in the sequence was replaced with the norleucine because the methionine may be susceptible to oxidation during synthesis and purification.
The mass spectrometry assay is conducted as follows: 0.5 μM peptide substrate and 120 μM βNAD^+ is incubated with 10 nM SIRT1 for 25 minutes at 25° C. in a reaction buffer (50 mM Tris-acetate pH 8, 137 mM NaCl, 2.7 mM KCl, 1 mM MgCl2, 5 mM DTT, 0.05% BSA). Test compounds may be added to the reaction as described above. […] After the 25 minute incubation with SIRT1, 10 μL of 10% formic acid is added to stop the reaction. Reactions are sealed and frozen for later mass spec analysis. Determination of the mass of the substrate peptide allows for precise determination of the degree of acetylation (i.e. starting material) as compared to deacetylated peptide (product).
A control for inhibition of sirtuin activity is conducted by adding 1 μL of 500 mM nicotinamide as a negative control at the start of the reaction (e.g., permits determination of maximum sirtuin inhibition). A control for activation of sirtuin activity is conducted using 10 nM of sirtuin protein, with 1 μL of DMSO in place of compound, to determine the amount of deacetylation of the substrate at a given timepoint within the linear range of the assay. This timepoint is the same as that used for test compounds and, within the linear range, the endpoint represents a change in velocity.
For the above assay, SIRT1 protein was expressed and purified as follows. […] The protein was expressed by induction with 1 mM IPTG as an N-terminal His-tag fusion protein at 18° C. overnight and harvested at 30,000×g. Cells were lysed with lysozyme in lysis buffer (50 mM Tris-HCl, 2 mM Tris[2-carboxyethyl]phosphine (TCEP), 10 μM ZnCl2, 200 mM NaCl) and further treated with sonication for 10 min for complete lysis. The protein was purified over a Ni-NTA column (Amersham) and fractions containing pure protein were pooled, concentrated and run over a sizing column (Sephadex S200 26/60 global). The peak containing soluble protein was collected and run on an Ion-exchange column (MonoQ). Gradient elution (200 mM-500 mM NaCl) yielded pure protein. This protein was concentrated and dialyzed against dialysis buffer (20 mM Tris-HCl, 2 mM TCEP) overnight. The protein was aliquoted and frozen at −80° C. until further use.
Sirtuin modulating compounds that activated SIRT1 were identified using the assay described above and are shown below in Table 1. The EC1.5 values for the activating compounds are represented by A (EC1.5≦1 uM), B (EC1.5>1 and ≦10 uM), or C (EC1.5>10 uM). The percent maximum fold activation is represented by A (Fold activation≧300%), B (Fold Activation≧150% and <300%), or C (Fold Activation<150%).

FOLD ACT. (percent maximum fold activation) | EC1.5 | SMILES
B (Fold Activation≧150% and <300%) | A (EC1.5≦1 uM) | COCCN1CCN(Cc2cnc3sc(-c4ccccc4NC(=O)c4nc(-c5ccccc5)oc4C(F)(F)F)nc3c2)CC1 [Compound 14, N-(2-(6-((4-(2-methoxyethyl)piperazin-1-yl)methyl)thiazolo[5,4-b]pyridin-2-yl)phenyl)-2-phenyl-5-(trifluoromethyl)oxazole-4-carboxamide]
B (Fold Activation≧150% and <300%) | A (EC1.5≦1 uM) | O=C(Nc1ccccc1-c1nc2cccnc2s1)c1nc(-c2ccccc2)sc1CCCN1CCOCC1 [Compound 13, 5-(3-morpholinopropyl)-2-phenyl-N-(2-(thiazolo[5,4-b]pyridin-2-yl)phenyl)thiazole-4-carboxamide]
B (Fold Activation≧150% and <300%) | A (EC1.5≦1 uM) | Cc1oc(-c2ccccc2)nc1C(=O)Nc1ccccc1-c1nc2cc(CN3CCOCC3)cnc2s1 [Compound 16, 5-methyl-N-(2-(6-(morpholinomethyl)thiazolo[5,4-b]pyridin-2-yl)phenyl)-2-phenyloxazole-4-carboxamide]
B (Fold Activation≧150% and <300%) | A (EC1.5≦1 uM) | O=C(Nc1ccccc1-c1nc2cc(CN3CCOCC3)cnc2s1)c1nc(-c2ccccc2)cs1 [Compound 24, N-(2-(6-(morpholinomethyl)thiazolo[5,4-b]pyridin-2-yl)phenyl)-4-phenylthiazole-2-carboxamide]
B (Fold Activation≧150% and <300%) | A (EC1.5≦1 uM) | COCC#Cc1sc(-c2ccccc2)nc1C(=O)Nc1ccccc1-c1nc2cc(CN3CCCC3)cnc2s1 [Compound 5, 5-(3-methoxyprop-1-ynyl)-2-phenyl-N-(2-(6-(pyrrolidin-1-ylmethyl)thiazolo[5,4-b]pyridin-2-yl)phenyl)thiazole-4-carboxamide]
A (Fold activation≧300%) | A (EC1.5≦1 uM) | O=C(Nc1ccccc1-c1nc2cccnc2s1)c1nc(-c2ccccc2)sc1CCCN1CCCC1 [Compound 8, 2-phenyl-5-(3-(pyrrolidin-1-yl)propyl)-N-(2-(thiazolo[5,4-b]pyridin-2-yl)phenyl)thiazole-4-carboxamide]
